Values of other authors as cited in publication PMC6311893, “Computational prediction of plasma protein binding of cyclic peptides from small molecule experimental data using sparse modeling techniques” (BMC Bioinformatics, 2018).
Where two headings read alike, the source gives them in different places.

Test system: plasma protein
Conditions: cited from earlier work
[1] = fraction bound to plasma protein, small molecule dataset, sheet 1-SM (Set Dte = test, Dtr = training), ref Ingle et al.

SMILES: C[C@@H]1[C@H](O)[C@@H](C)/C=C/C=C/C=C/C=C/C=C/C=C/C=C/[C@H](O[C@@H]2O[C@H](C)[C@@H](O)[C@H](N)[C@@H]2O)C[C@@H]2O[C@](O)(C[C@@H](O)C[C@@H](O)[C@H](O)CC[C@@H](O)C[C@@H](O)CC(=O)O[C@H]1C)C[C@H](O)[C@H]2C(=O)O [amphotericin-B]
- PPB (fb) [1]: 0.94

SMILES: CC(C)CN(C[C@@H](O)[C@H](Cc1ccccc1)NC(=O)O[C@H]1CCOC1)S(=O)(=O)c1ccc(N)cc1 [amprenavir]
- PPB (fb) [1]: 0.9

SMILES: CC(C)(C#N)c1cc(Cn2cncn2)cc(C(C)(C)C#N)c1 [anastrozole]
- PPB (fb) [1]: 0.44

SMILES: COc1ccc(C(=O)N2CCCC2=O)cc1 [aniracetam]
- PPB (fb) [1]: 0.66

SMILES: CCN(CC)CCCN(c1ccccc1)C1Cc2ccccc2C1 [aprindine]
- PPB (fb) [1]: 0.95

SMILES: C=CCC1(C(C)C)C(=O)NC(=O)NC1=O [aprobarbital]
- PPB (fb) (plasma): 0.62

SMILES: NCC[C@H](O)C(=O)N[C@@H]1C[C@H](N)[C@@H](O[C@H]2O[C@H](CN)CC[C@H]2N)[C@H](O)[C@H]1O[C@H]1O[C@H](CO)[C@@H](O)[C@H](N)[C@H]1O [arbekacin]
- PPB (fb) [1]: 0.08

SMILES: CCOC(=O)c1c(CSc2ccccc2)n(C)c2cc(Br)c(O)c(CN(C)C)c12 [arbidol]
- PPB (fb) [1]: 0.91

SMILES: CO[C@H]1O[C@@H]2O[C@@]3(C)CC[C@H]4[C@H](C)CC[C@@H]([C@H]1C)[C@@]24OO3 [artemether]
- PPB (fb) [1]: 0.5

SMILES: COc1ccc(CCN2CCC(Nc3nc4ccccc4n3Cc3ccc(F)cc3)CC2)cc1 [astemizole]
- PPB (fb) [1]: 0.97

SMILES: CN1CCC(=C2c3ccccc3CCc3cccnc32)CC1 [azatadine]
- PPB (fb) [1]: 0.1

SMILES: Cn1cnc([N+](=O)[O-])c1Sc1ncnc2nc[nH]c12 [azathioprine]
- PPB (fb) [1]: 0.25

SMILES: CC1(C)SC2C(NC(=O)C(N=[N+]=[N-])c3ccccc3)C(=O)N2C1C(=O)O (centres unmarked) [azidocillin]
- PPB (fb) [1]: 0.8

SMILES: NS(=O)(=O)c1cc(-c2nnn[nH]2)c(NCc2cccs2)cc1Cl [azosemide]
- PPB (fb) [1]: 0.96

SMILES: CCOC(=O)OC(C)OC(=O)[C@@H]1N2C(=O)[C@@H](NC(=O)[C@H](N)c3ccccc3)[C@H]2SC1(C)C (some centres unmarked) [bacampicillin]
- PPB (fb) [1]: 0.2

SMILES: NCC(CC(=O)O)c1ccc(Cl)cc1 (centres unmarked) [baclofen]
- PPB (fb) [1]: 0.3

SMILES: O=C(O)[C@H]1O[C@@H](Oc2cc3oc(-c4ccccc4)cc(=O)c3c(O)c2O)[C@H](O)[C@@H](O)[C@@H]1O [baicalin]
- PPB (fb) [1]: 0.66

SMILES: O=C(O)CCNC(=O)c1ccc(/N=N/c2ccc(O)c(C(=O)O)c2)cc1 [balsalazide]
- PPB (fb) [1]: 0.99

SMILES: CN(C)C(=O)Oc1cc(OC(=O)N(C)C)cc(C(O)CNC(C)(C)C)c1 (centres unmarked) [bambuterol]
- PPB (fb) [1]: 0.45

SMILES: CCC1(CC)C(=O)NC(=O)NC1=O [barbital]
- PPB (fb) (plasma): 0.1

SMILES: CCOC(=O)[C@H](CCc1ccccc1)N[C@H]1CCc2ccccc2N(CC(=O)O)C1=O [benazepril]
- PPB (fb) [1]: 0.96

SMILES: NS(=O)(=O)c1cc2c(cc1C(F)(F)F)NC(Cc1ccccc1)NS2(=O)=O (centres unmarked) [bendrofluazide]
- PPB (fb) [1]: 0.94

SMILES: CC(C(=O)O)c1ccc2oc(-c3ccc(Cl)cc3)nc2c1 (centres unmarked) [benoxaprofen]
- PPB (fb) [1]: 0.99

SMILES: CCc1oc2ccccc2c1C(=O)c1cc(Br)c(O)c(Br)c1 [benzbromarone]
- PPB (fb) [1]: 0.99

SMILES: CN(C)CCCOc1nn(Cc2ccccc2)c2ccccc12 [benzydamine]
- PPB (fb) [1]: 0.1

SMILES: CC(=O)OC1C(O)CC(OC2C(O)CC(OC3C(O)CC(OC4CCC5(C)C(CCC6C5CC(O)C5(C)C(C7=CC(=O)OC7)CCC65O)C4)OC3C)OC2C)OC1C (stereo not drawn) [beta-acetyldigoxin]
- PPB (fb) (plasma): 0.15

SMILES: CNCCc1ccccn1 [betahistine]
- PPB (fb) [1]: 0.03

SMILES: C/N=C(\NC)NCc1ccccc1 [bethanidine]
- PPB (fb) [1]: 0.1

SMILES: CC(C)(Oc1ccc(CCNC(=O)c2ccc(Cl)cc2)cc1)C(=O)O [bezafibrate]
- PPB (fb) [1]: 0.95

SMILES: O=C(O)CCCC[C@@H]1SC[C@@H]2NC(=O)N[C@@H]21 [biotin]
- PPB (fb) [1]: 0.2

SMILES: Cc1cc2c(OCC(CNC(C)(C)C)OC(=O)c3ccccc3)cccc2[nH]1 (centres unmarked) [bopindolol]
- PPB (fb) [1]: 0.65

SMILES: CC(C)C[C@H]1C(=O)N2CCC[C@H]2[C@]2(O)O[C@](NC(=O)[C@@H]3C=C4c5cccc6[nH]c(Br)c(c56)C[C@H]4N(C)C3)(C(C)C)C(=O)N12 [bromocriptine]
- PPB (fb) [1]: 0.95

SMILES: CN(C)CCC(c1ccc(Br)cc1)c1ccccn1 (centres unmarked) [brompheniramine]
- PPB (fb) [1]: 0.72

SMILES: CC(C)(C)N1CCC(c2ccccc2)(c2ccccc2)CC1 [budipine]
- PPB (fb) [1]: 0.96

SMILES: CC(NC(C)(C)C)C(=O)c1cccc(Cl)c1 (centres unmarked) [bupropion]
- PPB (fb) [1]: 0.75

SMILES: CCNC(=O)[C@@H]1CCCN1C(=O)[C@H](CCCNC(=N)N)NC(=O)[C@H](CC(C)C)NC(=O)[C@@H](COC(C)(C)C)NC(=O)[C@H](Cc1ccc(O)cc1)NC(=O)[C@H](CO)NC(=O)[C@H](Cc1c[nH]c2ccccc12)NC(=O)[C@H](Cc1cnc[nH]1)NC(=O)[C@@H]1CCC(=O)N1 [buserelin]
- PPB (fb) (human, plasma): 0.15

SMILES: CCCCC1(CC)C(=O)NC(=O)NC1=O [butobarbital]
- PPB (fb) (plasma): 0.26

SMILES: CC(CC1c2ccccc2CCc2ccccc21)CN(C)C (centres unmarked) [butriptyline]
- PPB (fb) [1]: 0.95

SMILES: C=CCN1C[C@H](C(=O)N(CCCN(C)C)C(=O)NCC)C[C@@H]2c3cccc4[nH]cc(c34)C[C@H]21 [cabergoline]
- PPB (fb) [1]: 0.41

SMILES: C=C1CC[C@H](O)C/C1=C/C=C1\CCC[C@]2(C)[C@@H]([C@H](C)CCCC(C)(C)O)CC[C@@H]12 [calcifediol]
- PPB (fb) [1]: 0.8

SMILES: C=C1/C(=C\C=C2/CCC[C@]3(C)[C@@H]([C@H](C)CCCC(C)(C)O)CC[C@@H]23)C[C@@H](O)C[C@@H]1O [calcitriol]
- PPB (fb): 0.95

SMILES: CCOc1nc2cccc(C(=O)O)c2n1Cc1ccc(-c2ccccc2-c2nnn[nH]2)cc1 [candesartan]
- PPB (fb) [1]: 0.99

SMILES: C[C@]12CCC(=O)C=C1C=C[C@@H]1[C@@H]2CC[C@@]2(C)[C@H]1CC[C@@]2(O)CCC(=O)O [canrenoate]
- PPB (fb) [1]: 0.94

SMILES: CCCCCOC(=O)Nc1nc(=O)n([C@@H]2O[C@H](C)[C@@H](O)[C@H]2O)cc1F [capecitabine]
- PPB (fb) [1]: 0.3

SMILES: NC(=O)N1c2ccccc2C=Cc2ccccc21 [carbamazepine]
- PPB (fb) [1]: 0.75

SMILES: COC(=O)Nc1nc2ccccc2[nH]1 [carbendazim]
- PPB (fb) (plasma): 0.67

SMILES: CC1(C)[C@@H](OC(=O)CCC(=O)O)CC[C@]2(C)[C@H]3C(=O)C=C4[C@@H]5C[C@@](C)(C(=O)O)CC[C@]5(C)CC[C@@]4(C)[C@]3(C)CC[C@@H]12 [carbenoxolone]
- PPB (fb) [1]: 0.99

SMILES: C[C@@](Cc1ccc(O)c(O)c1)(NN)C(=O)O [carbidopa]
- PPB (fb) [1]: 0.36

SMILES: CCOC(=O)n1ccn(C)c1=S [carbimazole]
- PPB (fb) [1]: 0.07

SMILES: CCCC(C)(COC(N)=O)COC(=O)NC(C)C (centres unmarked) [carisoprodol]
- PPB (fb) (plasma): 0.58

SMILES: CC(C)(C)NCC(O)COc1cccc2c1CCC(=O)N2 (centres unmarked) [carteolol]
- PPB (fb) [1]: 0.15

SMILES: N[C@@H](C(=O)N[C@@H]1C(=O)N2C(C(=O)O)=C(Cl)CS[C@H]12)c1ccccc1 [cefaclor]
- PPB (fb) [1]: 0.25

SMILES: C=CC1=C(C(=O)O)N2C(=O)[C@@H](NC(=O)/C(=N\O)c3csc(N)n3)[C@H]2SC1 [cefdinir]
- PPB (fb) [1]: 0.65

SMILES: CO/N=C(\C(=O)N[C@@H]1C(=O)N2C(C(=O)OCOC(=O)C(C)(C)C)=C(/C=C\c3scnc3C)CS[C@H]12)c1csc(N)n1 [cefditoren-pivoxil]
- PPB (fb) [1]: 0.88

SMILES: O=C(O)C1=C(CSc2nnnn2CS(=O)(=O)O)CS[C@@H]2[C@H](NC(=O)[C@H](O)c3ccccc3)C(=O)N12 [cefonicid]
- PPB (fb) [1]: 0.98

SMILES: COCC1=C(C(=O)OC(C)OC(=O)OC(C)C)N2C(=O)[C@@H](NC(=O)/C(=N\OC)c3csc(N)n3)[C@H]2SC1 (some centres unmarked) [cefpodoxime proxetil]
- PPB (fb) [1]: 0.29

SMILES: Cc1ccc(-c2cc(C(F)(F)F)nn2-c2ccc(S(N)(=O)=O)cc2)cc1 [celecoxib]
- PPB (fb) [1]: 0.97

SMILES: CCN(CC)C(=O)Nc1ccc(OCC(O)CNC(C)(C)C)c(C(C)=O)c1 (centres unmarked) [celiprolol]
- PPB (fb) [1]: 0.25

SMILES: CC(=O)OCC1=C(C(=O)O)N2C(=O)[C@@H](NC(=O)CC#N)[C@H]2SC1 [cephacetrile]
- PPB (fb) [1]: 0.2

SMILES: CC1OC2(CS1)CN1CCC2CC1 (centres unmarked) [cevimeline]
- PPB (fb) [1]: 0.15

SMILES: OC(O)C(Cl)(Cl)Cl [chloral-hydrate]
- PPB (fb) (plasma): 0.35

SMILES: CN1CCN(C(c2ccccc2)c2ccc(Cl)cc2)CC1 (centres unmarked) [chlorcyclizine]
- PPB (fb) [1]: 0.87

SMILES: [H]/N=C(\N/C(=N/[H])Nc1ccc(Cl)cc1)NC(C)C [chlorguanide]
- PPB (fb) [1]: 0.85

SMILES: CN1C(=O)CCS(=O)(=O)C1c1ccc(Cl)cc1 (centres unmarked) [chlormezanone]
- PPB (fb) (plasma): 0.5

SMILES: CC(C)(O)C(Cl)(Cl)Cl [chlorobutanol]
- PPB (fb) [1]: 0.55

SMILES: NS(=O)(=O)c1cc2c(cc1Cl)N=CNS2(=O)=O [chlorothiazide]
- PPB (fb) [1]: 0.7

SMILES: CN(C)CC/C=C1/c2ccccc2Sc2ccc(Cl)cc21 [chlorprothixene]
- PPB (fb) [1]: 0.99

SMILES: Cc1ncc2c(c1O)COC2c1ccc(Cl)cc1 (centres unmarked) [cicletanine]
- PPB (fb) [1]: 0.93

SMILES: CCOC(=O)[C@H](CCc1ccccc1)N[C@H]1CCCN2CCC[C@@H](C(=O)O)N2C1=O [cilazapril]
- PPB (fb) [1]: 0.25

SMILES: O=C1CCc2cc(OCCCCc3nnnn3C3CCCCC3)ccc2N1 [cilostazol]
- PPB (fb) [1]: 0.96

SMILES: COCC1CN(c2ccc(OCc3cccc(C#N)c3)cc2)C(=O)O1 (centres unmarked) [cimoxatone]
- PPB (fb) [1]: 0.94

SMILES: CCn1nc(C(=O)O)c(=O)c2cc3c(cc21)OCO3 [cinoxacin]
- PPB (fb) [1]: 0.64

SMILES: CC(C)(Oc1ccc(C2CC2(Cl)Cl)cc1)C(=O)O (centres unmarked) [ciprofibrate]
- PPB (fb) [1]: 0.95

SMILES: COc1cc(N)c(Cl)cc1C(=O)NC1CCN(CCCOc2ccc(F)cc2)CC1OC (centres unmarked) [cisapride]
- PPB (fb) [1]: 0.98

SMILES: O=C(O)[C@H]1/C(=C/CO)O[C@@H]2CC(=O)N21 [clavulanate]
- PPB (fb) [1]: 0.23

SMILES: CC(C)(C)NCC(O)c1cc(Cl)c(N)c(Cl)c1 (centres unmarked) [clenbuterol]
- PPB (fb) (plasma): 0.5

SMILES: CN1C(=O)CC(=O)N(c2ccccc2)c2cc(Cl)ccc21 [clobazam]
- PPB (fb) (plasma): 0.92

SMILES: O=P(O)(O)C(Cl)(Cl)P(=O)(O)O [clodronic acid]
- PPB (fb) [1]: 0.36

SMILES: CCOC(=O)C(C)(C)Oc1ccc(Cl)cc1 [clofibrate]
- PPB (fb) [1]: 0.96

SMILES: CC(C)(Oc1ccc(Cl)cc1)C(=O)O [clofibric acid]
- PPB (fb) [1]: 0.98
